The results in this text go back to ChEMBL document CHEMBL1201862, “PubChem BioAssay data set” (2004).

SMILES strings stand for the structures.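 In this assay, cells in 96-well plates receive the compound at five concentrations for 48 hours. Endpoints are linearly interpolated between the surrounding concentrations. The concentration for 50% growth inhibition is given as GI50.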 The source made the active and inactive calls. Cut-off read from the data, not from the text of the source: active = GI50 up to about 1.1 µM and inactive = higher. Bounds are passed on as bounds.

Some test systems named below: DLD-1; HL-60; M19-MEL; MCF7; NCI/ADR-RES; OVCAR-5; SK-MEL-28; SK-MEL-2; SK-MEL-5; SNB-75; SNB-78; UO-31; XF498; SR; Hs-578T; MDA-MB-231; MDA-MB-435; MDA-N; PC-3; T47D.
Assay in all cases: NCI anticancer screen, dose series, 48 h

Turning to `CC(=O)OC1CC2(O)C(CCC3(C)C(c4ccc(=O)oc4)CCC32O)C2(C)C1=CC(O)C1OC12` (stereo not given), the GI50 was 0.0506 µM (active) in the assay with DLD-1; 0.0575 µM (active) in the assay with HL-60; 0.0502 µM (active) with M19-MEL; 0.0552 µM (active) in the assay on MCF7; 0.0378 µM (active) with NCI/ADR-RES; 0.239 µM (active) with OVCAR-5. Also, the GI50 with SK-MEL-28 was 0.0621 µM (active); in the assay with SK-MEL-2, 0.0724 µM (active); in the assay with SK-MEL-5, 0.025 µM (active); with SNB-75, 0.0624 µM (active); with SNB-78, 0.0442 µM (active); with UO-31 it was 0.0713 µM (active). Besides, in the assay with XF498, the GI50 is 0.0693 µM (active).
For the molecule `CC1Oc2c(c(O)cc3oc(=O)cc(-c4ccccc4)c23)C(=O)C1C` (stereo not given), the GI50 with DLD-1, with HL-60, in the assay on SK-MEL-28, in the assay with SK-MEL-2, in the assay on SK-MEL-5 and in the assay on SNB-75 was > 100 µM (inactive) each time. In addition, the GI50 with SNB-78, in the assay on UO-31 and in the assay with XF498 was > 100 µM (inactive) each time.
Turning to `C=C1C(=O)O[C@H]2[C@H]1[C@@H](OC(=O)C=C(C)C)CC1=C[C@@H](C[C@@]3(C)O[C@@H]23)OC1=O`, the GI50 in the assay with DLD-1 is 1.6 µM (inactive); with M19-MEL it was 3.08 µM (inactive); in the assay with NCI/ADR-RES, 2.17 µM (inactive); in the assay with OVCAR-5, 16.7 µM (inactive); in the assay on SK-MEL-2, 9.1 µM (inactive); with SK-MEL-5, 5.55 µM (inactive). Further, the GI50 in the assay on SNB-75 is 18 µM (inactive); in the assay with UO-31 it was 7.74 µM (inactive); in the assay on XF498 it was 2.05 µM (inactive).
Take `COc1cccc(C2C(C(=O)O)=C(CO)Oc3cc4c(cc32)OCO4)c1OC` (stereo not given): the GI50 in the assay with DLD-1, with HL-60, in the assay on M19-MEL, in the assay with SK-MEL-28, in the assay with SK-MEL-2 and with SK-MEL-5 was > 100 µM (inactive) throughout. Moreover, the GI50 is > 100 µM (inactive) in the assay on SNB-75, > 100 µM (inactive) in the assay on SNB-78, > 100 µM (inactive) in the assay on UO-31 and 9.25 µM (inactive) with XF498.
With `O=C1OC(c2ccccc2)=N/C1=C\c1ccc(Oc2ccc(Cl)c(Cl)c2)cc1`, the GI50 with DLD-1 was 48.9 µM (inactive); in the assay on HL-60, 27.9 µM (inactive); in the assay with M19-MEL, 36.9 µM (inactive); with OVCAR-5, > 100 µM (inactive); with SK-MEL-28, > 10 µM (inactive); with SK-MEL-2, 50.5 µM (inactive). For the same molecule, the GI50 is 30.1 µM (inactive) in the assay with SK-MEL-5, 25.9 µM (inactive) in the assay on SNB-78, 21.7 µM (inactive) in the assay on SR and 21.8 µM (inactive) with UO-31.
Take `COC(=O)C1=C(C)N2CCOC2(C)C(C(=O)OC)C1c1ccc[nH]1` (stereo not given): the GI50 in the assay with DLD-1, in the assay with HL-60, in the assay with M19-MEL, in the assay with SK-MEL-28, with SK-MEL-2 and with SK-MEL-5 was > 100 µM (inactive) throughout. Also, the GI50 in the assay on SNB-75 was 18.7 µM (inactive); with SR it was > 100 µM (inactive); with UO-31, > 100 µM (inactive).
In the case of `O=P1(c2ccccc2)Nc2ccccc2SSc2ccccc2N1`, the GI50 is 17 µM (inactive) in the assay on DLD-1; 13.8 µM (inactive) with HL-60; 18.7 µM (inactive) with M19-MEL; 16.7 µM (inactive) with MCF7; 19.9 µM (inactive) in the assay with NCI/ADR-RES; 21.2 µM (inactive) in the assay with OVCAR-5. Besides, the GI50 with SK-MEL-28 is 18.7 µM (inactive); in the assay on SK-MEL-2, 16.7 µM (inactive); with SK-MEL-5, 16.9 µM (inactive); in the assay on SNB-75 it was 20.4 µM (inactive); in the assay with SNB-78 it was 24.2 µM (inactive); in the assay on UO-31 it was 14.1 µM (inactive). The GI50 with XF498 was 17.8 µM (inactive).
For the molecule `Cc1cc(C)nc(NS(=O)(=O)c2ccc(Nc3c4ccccc4nc4c(C(=O)N5CCN(CCOS(C)(=O)=O)CC5)cccc34)cc2)n1`, the GI50 in the assay with DLD-1, in the assay with HL-60, in the assay with M19-MEL, in the assay with OVCAR-5, with SK-MEL-28 and in the assay with SK-MEL-2 was > 100 µM (inactive) in each case. Also, the GI50 in the assay with SK-MEL-5 is > 100 µM (inactive); in the assay with SNB-75 it was 49.9 µM (inactive); in the assay with SNB-78, > 100 µM (inactive); with UO-31, > 100 µM (inactive); with XF498, > 100 µM (inactive).
Consider `COc1nc2cccc(C(O)c3ccccc3)c2nc1-c1ccccc1` (stereo not given), for which the GI50 in the assay on HL-60 is 3.18 µM (inactive); in the assay with Hs-578T it was 2.28 µM (inactive); in the assay on MCF7, 4.47 µM (inactive); with MDA-MB-231, 8.41 µM (inactive); in the assay on MDA-MB-435, 1.78 µM (inactive); in the assay on MDA-N, 1.55 µM (inactive). The GI50 in the assay with NCI/ADR-RES was 3.85 µM (inactive); with OVCAR-5, 11 µM (inactive); in the assay with PC-3, 4.46 µM (inactive); with SK-MEL-28, 13.4 µM (inactive); in the assay with SK-MEL-2, 9.95 µM (inactive); with SK-MEL-5, 3.56 µM (inactive). In addition, the GI50 was 9.12 µM (inactive) with SNB-75, 1.75 µM (inactive) in the assay on SR, 8.57 µM (inactive) in the assay with T47D and 8.39 µM (inactive) with UO-31.
With `NC(CCCCCCCCCCP(=O)(O)O)C(=O)O` (stereo not given), the GI50 in the assay on HL-60, with Hs-578T, in the assay on MCF7, in the assay on MDA-MB-231, in the assay with MDA-MB-435 and in the assay with MDA-N was > 100 µM (inactive) throughout. For the same molecule, the GI50 in the assay on NCI/ADR-RES, in the assay on OVCAR-5, in the assay with PC-3, in the assay on SK-MEL-28, in the assay on SK-MEL-2 and with SK-MEL-5 was > 100 µM (inactive) in each case. In addition, the GI50 with SNB-75 was 7.73 µM (inactive); in the assay with SR it was > 100 µM (inactive); in the assay on T47D, > 100 µM (inactive); in the assay with UO-31 it was > 100 µM (inactive).
As to `C=CCC(O[Si](C)(C)C(C)(C)C)c1cc(O[Si](C)(C)C(C)(C)C)ccc1OC` (stereo not given), the GI50 is > 70.3 µM (inactive) in the assay with DLD-1; > 100 µM (inactive) with HL-60; 51.1 µM (inactive) in the assay with MCF7; > 64.7 µM (inactive) in the assay on NCI/ADR-RES; > 100 µM (inactive) in the assay with OVCAR-5; > 81.8 µM (inactive) in the assay on SK-MEL-28. Moreover, the GI50 was > 75.5 µM (inactive) with SK-MEL-2; > 61.1 µM (inactive) in the assay with SK-MEL-5; > 55.6 µM (inactive) in the assay on SNB-75; > 49.2 µM (inactive) with SNB-78; > 82 µM (inactive) with UO-31; > 58.5 µM (inactive) in the assay with XF498.
On to `C=CCc1cccc(/C=N\N/C(N)=N/O)c1O`, for which the GI50 is 4.84 µM (inactive) in the assay on DLD-1; 2.14 µM (inactive) in the assay with HL-60; 2.56 µM (inactive) in the assay on MCF7; 2.23 µM (inactive) with NCI/ADR-RES; 5.02 µM (inactive) in the assay with OVCAR-5; 11.9 µM (inactive) in the assay with SK-MEL-28. In addition, the GI50 in the assay on SK-MEL-2 was 6.3 µM (inactive); in the assay with SK-MEL-5 it was 3.76 µM (inactive); with SNB-75, 4.43 µM (inactive); with SNB-78 it was 21.5 µM (inactive); with UO-31, 1.45 µM (inactive); in the assay on XF498, 4.27 µM (inactive).
As to `NC1=C(C(=O)O)C(=O)C(Nc2c(O)cccc2C(=O)O)=CC1=O`, the GI50 was 31.6 µM (inactive) in the assay with DLD-1; > 100 µM (inactive) in the assay with HL-60; 18.7 µM (inactive) with M19-MEL; > 100 µM (inactive) with OVCAR-5; 0.942 µM (active) with SK-MEL-28; 59.3 µM (inactive) with SK-MEL-2. The GI50 was 76 µM (inactive) with SK-MEL-5; > 100 µM (inactive) in the assay on SNB-75; > 100 µM (inactive) in the assay on SNB-78; > 100 µM (inactive) in the assay on SR; > 100 µM (inactive) with UO-31; > 100 µM (inactive) in the assay on XF498.
As to `CN1CCN(c2cc(-c3cc4ccccc4o3)oc(=O)c2C#N)CC1`, the GI50 is 76 µM (inactive) with DLD-1; 43.9 µM (inactive) with HL-60; 50.1 µM (inactive) with OVCAR-5; > 100 µM (inactive) in the assay on SK-MEL-28; > 100 µM (inactive) in the assay on SK-MEL-2; 72.8 µM (inactive) in the assay on SK-MEL-5. Also, the GI50 with SNB-75 is 80.4 µM (inactive); in the assay on SNB-78, > 100 µM (inactive); in the assay on SR it was 36.8 µM (inactive); with UO-31 it was > 100 µM (inactive); with XF498, > 100 µM (inactive).
For `O=C(OCc1ccccc1)C(Cc1ccccc1)N(Cc1ccccc1)Cc1ccccc1` (stereo not given), the GI50 in the assay on DLD-1 was > 100 µM (inactive); in the assay on HL-60, 36.7 µM (inactive); in the assay with M19-MEL, 76.7 µM (inactive); in the assay with OVCAR-5, > 100 µM (inactive); in the assay on SK-MEL-28, > 100 µM (inactive); with SK-MEL-2 it was > 100 µM (inactive). The GI50 is 5.94 µM (inactive) in the assay with SK-MEL-5; 16.5 µM (inactive) in the assay on SNB-75; > 100 µM (inactive) in the assay on SNB-78; 9.51 µM (inactive) in the assay with SR; 59 µM (inactive) in the assay on UO-31; 21.8 µM (inactive) in the assay with XF498.
As to `Cc1ccc(S(=O)(=O)N(CC(=O)O)c2ccccc2)cc1`, the GI50 with DLD-1, in the assay on HL-60, in the assay with M19-MEL, in the assay on OVCAR-5, with SK-MEL-28 and in the assay on SK-MEL-2 was > 100 µM (inactive) each time. Further, the GI50 in the assay with SK-MEL-5, in the assay on SNB-75 and in the assay on UO-31 was > 100 µM (inactive) each time.
For `Cc1cc(C)cc(Sc2c([N+](=O)[O-])ncn2C)c1`, the GI50 was 11.9 µM (inactive) with DLD-1; 22.6 µM (inactive) in the assay on M19-MEL; 16.9 µM (inactive) in the assay with OVCAR-5; 15.2 µM (inactive) with SK-MEL-28; 10.6 µM (inactive) with SK-MEL-2; 13.8 µM (inactive) in the assay on SK-MEL-5. The GI50 was 21.3 µM (inactive) in the assay on SNB-75; 13.6 µM (inactive) in the assay on SNB-78; 10.5 µM (inactive) in the assay with SR; 13.7 µM (inactive) with UO-31; 16.6 µM (inactive) in the assay on XF498.
